Measured values from article PMC11435058, “Synthesis of New Thiazole-Privileged Chalcones as Tubulin Polymerization Inhibitors with Potential Anticancer Activities” (Pharmaceuticals, 2024).
Where two headings read alike, the source gives them in different places.

Tests used:
UACC-62 = assay: NCI-60 anticancer screen (SRB; single dose and five doses); conditions: Homo sapiens, UACC-62, 48 h, read-out: Growth Percentage
SF-268 = assay: as above; conditions: Homo sapiens, SF-268, 48 h, read-out: Growth Percentage
RXF 393 = assay: as above; conditions: Homo sapiens, RXF 393, 48 h, read-out: Growth Percentage
IGROV1 = assay: as above; conditions: Homo sapiens, IGROV-1, 48 h, read-out: Growth Percentage
NCI/ADR-RES = assay: as above; conditions: Homo sapiens, 48 h, read-out: Growth Percentage
CAKI-1 = assay: as above; conditions: Homo sapiens, CAKI-1, 48 h, read-out: Growth Percentage
MOLT-4 = assay: as above; conditions: Homo sapiens, MOLT-4, 48 h, read-out: Growth Percentage
MALME-3M = assay: as above; conditions: Homo sapiens, 48 h, read-out: Growth Percentage
HL-60(TB) = assay: as above; conditions: Homo sapiens, HL-60, 48 h, read-out: Growth Percentage
SR = assay: as above; conditions: Homo sapiens, 48 h, read-out: Growth Percentage
KM12 = assay: as above; conditions: Homo sapiens, KM12, 48 h, read-out: Growth Percentage
MDA-MB-231/ATCC = assay: as above; conditions: Homo sapiens, MDA-MB-231, 48 h, read-out: Growth Percentage
HT29 = assay: as above; conditions: Homo sapiens, HT-29, 48 h, read-out: Growth Percentage
HOP-92 = assay: as above; conditions: Homo sapiens, HOP-92, 48 h, read-out: Growth Percentage
LOX IMVI = assay: as above; conditions: Homo sapiens, 48 h, read-out: Growth Percentage
K-562 = assay: as above; conditions: Homo sapiens, K562, 48 h, read-out: Growth Percentage
[1] = tested on: 60 human tumor cell lines panel; assay: NCI-60 anticancer screen, whole panel (means and ranges over the cell lines); assay type: cell-based; conditions: Homo sapiens, 48 h
HCT-15 = assay: NCI-60 anticancer screen (SRB; single dose and five doses); conditions: Homo sapiens, HCT-15, 48 h, read-out: Growth Percentage
DU-145 = assay: as above; conditions: Homo sapiens, DU-145, 48 h, read-out: Growth Percentage
HS 578T = assay: as above; conditions: Homo sapiens, 48 h, read-out: Growth Percentage
PC-3 = assay: as above; conditions: Homo sapiens, PC-3, 48 h, read-out: Growth Percentage
BT-549 = assay: as above; conditions: Homo sapiens, BT-549, 48 h, read-out: Growth Percentage
A549/ATCC = assay: as above; conditions: Homo sapiens, A549, 48 h, read-out: Growth Percentage
SK-MEL-5 = assay: as above; conditions: Homo sapiens, SK-MEL-5, 48 h, read-out: Growth Percentage
RPMI-8226 = assay: as above; conditions: Homo sapiens, RPMI-8226, 48 h, read-out: Growth Percentage
HOP-62 = assay: as above; conditions: Homo sapiens, HOP-62, 48 h, read-out: Growth Percentage
COLO 205 = assay: as above; conditions: Homo sapiens, COLO 205, 48 h, read-out: Growth Percentage
T-47D = assay: as above; conditions: Homo sapiens, T47D, 48 h, read-out: Growth Percentage
[2] = mean over the tested cell lines, dose of 10 μM, read-out: Mean growth percentage
[3] = range over the cell lines, dose of 10 μM, read-out: growth percentages against most of the tested cells (lowest to highest)
[4] = read-out: growth percentages against most of the tested cells (lowest to highest)

SMILES | activity at 10 µM (UACC-62) [%] | activity at 10 µM (SF-268) [%] | activity at 10 µM (RXF 393) [%] | activity at 10 µM (NCI/ADR-RES) [%] | activity at 10 µM (CAKI-1) [%] | activity at 10 µM (MOLT-4) [%] | activity at 10 µM (HL-60(TB)) [%] | activity at 10 µM (KM12) [%] | activity at 10 µM (MDA-MB-231/ATCC) [%] | activity at 10 µM (LOX IMVI) [%] | activity at 10 µM (K-562) [%] | activity at 10 µM [1, 2] [%] | activity at 10 µM (HCT-15) [%] | activity at 10 µM (DU-145) [%] | activity at 10 µM (HS 578T) [%] | activity at 10 µM (PC-3) [%] | activity at 10 µM (BT-549) [%] | activity at 10 µM (A549/ATCC) [%] | activity at 10 µM (SK-MEL-5) [%] | activity at 10 µM (RPMI-8226) [%] | also measured
Cc1[nH]c(=S)sc1C(=O)/C=C/c1ccccc1 [2a, (E)-1-(4-Methyl-2-Thioxo-2,3-Dihydrothiazol-5-yl)-3-Phenylprop-2-En-1-One] | 65.3 | 69.8 | 46.4 | 64.8 | 52.5 | 74.2 | 49.6 | 29 | 70 | 31.1 | 51 | 65 | 35 | 27.9 | 90.1 | 77.6 | 68.8 | 82.3 | 68.8 | 14.1 | activity at 10 µM (IGROV1): 81.8%; activity at 10 µM (MALME-3M): 87.8%; activity at 10 µM (SR): 32.4%; activity at 10 µM (HT29): 99.7%; activity at 10 µM (HOP-92): 89.6%; activity at 10 µM [1, 3]: 14.1 to 129%
COc1ccc(/C=C/C(=O)c2sc(=S)[nH]c2C)c(OC)c1 [2n, (E)-3-(2,4-Dimethoxyphenyl)-1-(4-Methyl-2-Thioxo-2,3-Dihydrothiazol-5-yl)Prop-2-En-1-One] | 65.2 | 89.7 | 68.9 | 48 | 82.8 | 72.3 | 55.8 | 73.4 | 98.7 | 57.8 | 48.9 | 75.1 | 45.8 | 86.9 | 89.5 | 75.7 | 59.8 | 90 | 37.8 | 35.6 | activity at 10 µM (HOP-62): 88.8%; activity at 10 µM (HT29): 115%; activity at 10 µM (HOP-92): 103%; activity at 10 µM (COLO 205): 123%; activity at 10 µM [1, 4]: 19.2 to 123%; activity at 10 µM (T-47D): 30.9%
COc1cccc(/C=C/C(=O)c2sc(=S)[nH]c2C)c1OC [2m, (E)-3-(2,3-Dimethoxyphenyl)-1-(4-Methyl-2-Thioxo-2,3-Dihydrothiazol-5-yl)Prop-2-En-1-One] | 45.5 | 54 | 52.5 | 30.9 | 41.9 | 36.8 | 12.7 | 25.3 | 68.3 | 21.7 | 27.5 | 49.9 | 32.7 | 42 | 49.2 | 41.6 | 71 | 43.1 | 23.5 | 9.09 | activity at 10 µM (IGROV1): 73.9%; activity at 10 µM (HOP-62): 91.8%; activity at 10 µM (MALME-3M): 97.1%; activity at 10 µM (SR): 5.15%; activity at 10 µM (HOP-92): 61.5%; activity at 10 µM (COLO 205): 103%; activity at 10 µM [1, 3]: 5.15 to 109%; activity at 10 µM (T-47D): 34.5%
Cc1[nH]c(=S)sc1C(=O)/C=C/c1ccccc1Cl [2d, (E)-3-(2-Chlorophenyl)-1-(4-Methyl-2-Thioxo-2,3-Dihydrothiazol-5-yl)Prop-2-En-1-One] | 72.9 | 80.4 | 93.8 | 88.8 | 68.5 | 84.2 | 53 | 63.8 | 101 | 57.5 | 47.4 | 79.4 | 57.4 | 76 | 92.8 | 71.8 | 76.8 | 87.6 | 68.5 | 28.6 | activity at 10 µM (IGROV1): 91.9%; activity at 10 µM (HOP-62): 91.7%; activity at 10 µM (MALME-3M): 105%; activity at 10 µM (SR): 14.1%; activity at 10 µM (HT29): 122%; activity at 10 µM (COLO 205): 118%; activity at 10 µM [1, 3]: 14.1 to 116%; activity at 10 µM (T-47D): 47.3%
COc1ccc(/C=C/C(=O)c2sc(=S)[nH]c2C)cc1 [2l, (E)-3-(4-Methoxyphenyl)-1-(4-Methyl-2-Thioxo-2,3-Dihydrothiazol-5-yl)Prop-2-En-1-One] | 71.8 | 81 | 77.5 | 76.4 | 59 | 81.5 | 58.5 | 42.2 | 89.3 | 44.2 | 56.6 | 74.6 | 50.8 | 58.5 | 96.5 | 82.2 | 75 | 82.9 | 55.9 | 19.6 | activity at 10 µM (IGROV1): 89.1%; activity at 10 µM (MALME-3M): 90%; activity at 10 µM (SR): 43.7%; activity at 10 µM (HT29): 96.8%; activity at 10 µM (HOP-92): 101%; activity at 10 µM [1, 4]: 15.1 to 120%
Cc1[nH]c(=S)sc1C(=O)/C=C/c1cccc(F)c1 [2b, (E)-3-(3-Fluorophenyl)-1-(4-Methyl-2-Thioxo-2,3-Dihydrothiazol-5-yl)Prop-2-En-1-One] | 58.3 | 82.3 | 23.2 | 10.8 | 37.7 | 43.6 | 12 | 11.9 | 67.4 | 13.8 | 22.8 | 47.5 | 19.1 | 12.9 | 79.8 | 54.7 | 65.7 | 76.4 | 62.2 | 15.2 | activity at 10 µM (IGROV1): 32.3%; activity at 10 µM (HOP-62): 34.8%; activity at 10 µM (MALME-3M): 101%; activity at 10 µM (SR): 6.82%; activity at 10 µM (HT29): 47.1%; activity at 10 µM (COLO 205): 94.5%; activity at 10 µM [1, 4]: -22.7 to 106%; activity at 10 µM (T-47D): 0.69%
